Results taken from patent US20170224772A1, “COMPOSITION AND KIT FOR PREVENTION OR TREATMENT OF ARTHRITIS, AND METHOD USING THE SAME” (Samsung Electronics Co., Ltd., priority 2014, published 2017).
Marks after values point to notes of the source that are not given here.

Assays:
Type in all cases: in vivo, mouse (DBA/1)
[1] = system: Mice in which rheumatoid arthritis was induced; test: Assessment of arthritis severity (score of edema and flare at fore and hind paws); conditions: 0-4 per leg, maximum 16; after three times of administration; in comparison with negative control group
Procedure: (§1) Chicken type II collagen (Sigma-Aldrich) was mixed with 0.05 M acetic acid at 4° C. to the concentration of 2 mg/ml. The resulting mixture and Freund's complete adjuvant (CFA) (Sigma-Aldrich) were mixed at an equal amount ratio, and then the resulting mixture was homogenized at 30000 rpm for three minutes by using a homogenizer (Polytron PT3100D) to prepare an antigen material for administration. For a first immunization, the antigen material for administration was intradermally injected to a mouse tail (DBA/1 mouse, six weeks old) (Day 1). Three weeks later, the CFA was replaced by Freund's incomplete adjuvant (IFA) (Sigma-Aldrich), and boosting was performed by the same method.
(§2) Mice were divided into five groups, and saline solution, hASCs, and CTLA4Ig-hASC were intravenously injected to mouse tails on Day 63, Day 70, Day 77, and Day 84 after immunization as shown in Table 1 below.
In the mice of Example 1-2, from Day 62 after the immunization, the severity of arthritis at the fore paw and the hind paw was assessed three times per week in a score from 0 point (No arthritis) to 4 point (Severe arthritis) according to the degree of edema and flare. The assessment was performed at each leg with the maximum possible score of 16. The clinical score was measured at each mouse by Day 90 after the immunization. […]

[2] = system: Mice in which rheumatoid arthritis was induced; test: ELISA of anti-mouse type II collagen antibody, C-telopeptide I and C-telopeptide II in serum; conditions: comparison among negative control and treatment groups
Procedure: as §1, with “method. […]” for “method.”
In the serum obtained in Example 1-2, anti-mouse type II collagen antibody, C-terminal telopeptide of Type I collagen (C-telopeptide I) that was a Type I collagen discharged during osteoclastic bone resorption, and C-terminal telopeptide of Type II collagen (C-telopeptide II) that was a chondrolysis product were detected by ELISA.
Specifically, anti-mouse type II collagen antibody, C-telopeptide I, and C-telopeptide II in the serum were measured by using an anti-mouse type II antibody collagen ELISA kit (Astarte Biologics), RatLap™ EIA kit (Immunodiagnostic Systems Ltd.), and a type II collagen ELISA kit (CUSABIO), respectively. […]

cytokine [3] = test: Multiplex measurement of cytokine concentration in serum
Procedure: as §2
(§3) To verify the variation of cytokine expression according to transplantation of hASC or CTLA4Ig-hASC, the serum, knee extract, splenocytes, and lymph node cells obtained in Example 1-2 were prepared.
(§4) The cytokine concentration in serum, knee extract, and the obtained supernatant of the culture solutions of splenocytes and lymph node cells was measured by using a multiplex cytokine/chemokine kit (Milliplex MAP mouse cytokine/chemokine kit, Millipore) by following the protocol provided by the manufacturer. As cytokines, tumor necrosis factor (TNF)-αinterferon (IFN)-α, interleukin (IL)-1α, IL-1β, IL-2, IL-4, IL-6, IL-10, IL-12p70, IL-15, IL-17, keratinocyte-derived chemokine (KC), monocyte chemotactic protein (MCP)-1, macrophage inflammatory protein (MIP)-2, and regulated-upon-activation normal T-cell expressed and secreted (RANTES) were measured.
(§5) The cytokine concentration (pg/ml) in the splenocyte culture medium that was cultured in the presence of Type II collagen, ConA, an LPS is shown in Tables 4 to 6, respectively. The cytokine concentration (pg/ml) in the lymph node cell culture solution that was cultured in the presence of ConA is shown in Table 7.
(§6) The data obtained from each group was compared by performing a Kruskal Wallis test (†: P<0.05) or a (Mann-Whitney U test) (*: significant difference in comparison with the negative control group (p<0.05)).

cytokine [4] = test: Multiplex measurement of cytokine concentration in knee extract
Procedure: as §2, §3, §4, §5, §6

cytokine [5] = test: Cytokine concentration in splenocyte culture medium, cultured in the presence of Type II collagen; conditions: Type II collagen 100 μg/ml, 48 hours
Procedure: as §2, §3
(§7) Splenocytes of each group were separated. 2.5×10^5/well of splenocytes cultured in 96-well plate (Nunc) in a final volume of 200 μl including or not including 100 μg/ml of Type II collagen (Sigma Aldrich), 2.5 μg/ml of concanavalin A (ConA) (Sigma Aldrich), and 2.5 μg/ml of lipopolysaccharide (LPS) (Sigma Aldrich). The cells were incubated in humidified air at 37° C. for 48 hours. Then, the supernatant of the splenocyte culture medium was obtained and stored at −70° C. By the same method, lymph node cells were cultured in a culture medium including ConA, and the supernatant of lymph node cell culture solution was obtained.
as §4
The cytokine concentration (pg/ml) in the splenocyte culture medium that was cultured in the presence of Type II collagen, ConA, an LPS is shown in Tables 4 to 6, respectively. The cytokine concentration (pg/ml) in the lymph node cell culture solution that was cultured in the presence of ConA is shown in Table 7. […]

cytokine [6] = test: Cytokine concentration in splenocyte culture medium, cultured in the presence of ConA; conditions: ConA 2.5 μg/ml, 48 hours
Procedure: as §2, §3, §7, §4, §5, §6

cytokine [7] = test: Cytokine concentration in splenocyte culture medium, cultured in the presence of LPS; conditions: LPS 2.5 μg/ml, 48 hours
Procedure: as §2, §7, §4, §6

cytokine [8] = test: Cytokine concentration in lymph node cell culture solution, cultured in the presence of ConA
Procedure: as §2, §3
Splenocytes of each group were separated. 2.5×10^5/well of splenocytes cultured in 96-well plate (Nunc) in a final volume of 200 μl including or not including 100 μg/ml of Type II collagen (Sigma Aldrich), 2.5 μg/ml of concanavalin A (ConA) (Sigma Aldrich), and 2.5 μg/ml of lipopolysaccharide (LPS) (Sigma Aldrich). […]
as §4, with “measured. […]” for “measured.”

[9] = system: Mice in which rheumatoid arthritis was induced; test: Histopathological assessment of knee cartilage (H&E, Safranin O); conditions: H&E and Safranin O, Week 13 after first immunization
From the text: as §2
(§8) Knee cartilage tissues were stained to investigate the degree of cartilage injury and bone injury by rheumatoid arthritis, and micro-computed tomography images were obtained to verify morphologic defects in paw joints.
In Week 13 after the first immunization, knee cartilage tissues were obtained from the animals of Example 1-2. The obtained knee cartilage tissues were fixed by using 10% (v/v) neutral buffered formalin (Sigma-Aldrich), and the resulting solution was stirred by using a rapid decalcifier (Thermo Scientific) for 24 hours to decalcify. When an osseous tissue was easily cut by a razor, it was assumed that the tissue was completely decalcified. The decalcified osseous tissue was dehydrate and embedded in paraffin. To assess histopathological injury, the paraffin-embedded tissue was cut into 4 μm-thick slices, and the paraffin was removed from the slices by using xylene. Then, the slices were rehydrated by using a graded alcohol, and stained by using hematoxylin and eosin (H&E) (DAKO) and Safranin O (IHC World). […]

[10] = system: Mice in which rheumatoid arthritis was induced; test: Micro-CT verification of morphologic defects in paw joints; conditions: score 0-4
From the text: as §2, §8
To verify morphological defects in paw joints, the mice paw obtained in Example 1-2 were fixed by using 4%(v/v) formalin (Sigma-Aldrich), and images of the mouse paws were obtained by using Inveon Preclinical CT (Siemens Healthcare) that is a micro-CT scanner at 40 μm of thickness, 0.6 second of exposure time, 70 keV of […] energy, and 400 μA of current. The images were reconstructed into three-dimensional images by using IRW software (Siemens Healthcare).
The data were compared among the groups by performing an ANOVA and then Tukey's multiple comparison tests. A significant difference in comparison with the negative control group was marked as “*” (p<0.05).

CN(Cc1cnc2nc(N)nc(N)c2n1)c1ccc(C(=O)N[C@@H](CCC(=O)O)C(=O)O)cc1 [MTX, methotrexate] was tested, and the arthritis severity score [1] was “a pattern that was similar to that of the negative control group”, the “concentration of C-telopeptide I in serum” value [2] was “not significantly different” and the IL-6 concentration (cytokine [3]) was 161.10 ± 59.69 pg/mL. For the same compound, the MIP-2 concentration (cytokine [3]) was 17.36 ± 8.79* pg/ml, the TNF-α concentration (cytokine [3]) was 5.22 ± 1.37 pg/mL and the IL-1β concentration (cytokine [4]) was 4.54 ± 2.88 pg/mL. It also gave an IL-6 concentration (cytokine [4]) of 19.37 ± 11.87 pg/mL, a KC concentration (cytokine [4]) of 305.82 ± 147.86 pg/mL and an MIP-2 concentration (cytokine [4]) of 50.36 ± 19.78 pg/mL. For the same compound, the RANTES concentration (cytokine [4]) was 0.20 ± 0.07* pg/ml, the IL-10 concentration (cytokine [5]) was 3.75 ± 0.89 pg/mL and the IL-17 concentration (cytokine [5]) was 4.73 ± 2.01 pg/mL. For the same compound, the MCP-1 concentration (cytokine [5]) was 591.43 ± 222.2 pg/mL, the IL-1α concentration (cytokine [6]) was 21.02 ± 3.77 pg/mL and the IL-6 concentration (cytokine [6]) was 279.78 ± 71.12 pg/mL. For the same compound, the IL-10 concentration (cytokine [6]) was 80.76 ± 23.19 pg/mL, the IL-17 concentration (cytokine [6]) was 1345.14 ± 590.38 pg/mL and the KC concentration (cytokine [6]) was 10.78 ± 1.86 pg/mL. For the same compound, the MCP-1 concentration (cytokine [6]) was 549.99 ± 220.33 pg/mL, the IL-1α concentration (cytokine [7]) was 112.01 ± 27.82 pg/mL and the IL-4 concentration (cytokine [7]) was 0.37 ± 0.24 pg/mL. It also gave an IL-6 concentration (cytokine [7]) of 4676.79 ± 1097.10 pg/mL, a KC concentration (cytokine [7]) of 199.78 ± 50.25 pg/mL and an MCP-1 concentration (cytokine [7]) of 250.79 ± 87.01 pg/mL. For the same compound, the MIP-2 concentration (cytokine [7]) was 2022.27 ± 409.37 pg/mL, the RANTES concentration (cytokine [7]) was 128.44 ± 24.46 pg/mL and the TNF-α concentration (cytokine [7]) was 90.65 ± 20.41 pg/mL. The IL-10 concentration (cytokine [8]) was 23.11 ± 4.08 pg/mL, the “destruction of the joint cartilage” value [9] was “severely damaged” and the “mice showing a severe morphological defect in the paw joints” value [10] was “four mice out of the seven mice”.
